Assay results reported in patent publication US9023857B2, “Substituted 6-(2-aminobenzylamino)purine derivatives, their use as medicaments and preparations containing these compounds” (Univerzita Palackeho V Olomouci, priority 2009, dated 2015).

Tests used:
HSV-1-deltaTK = test: Plaque number reduction assay, HSV-1-deltaTK on HFFF; assay type: cell-based; details: HSV-1 thymidine kinase (TK) deletion mutant on HFFF
breast carcinoma MCF7 = test: In vitro cytotoxic activity (Calcein AM, 72 hours), MCF7; details: Homo sapiens, MCF7, 72 h, read-out: Cytotoxicity IC50 MCF7
[1] = test system: promyelocytic leukemia HL 60; test: In vitro cytotoxic activity (Calcein AM, 72 hours), HL 60; details: Homo sapiens, HL-60, 72 h, read-out: Cytotoxicity IC50 HL60
[2] = test system: P388D1 leukemia transplanted intraperitoneally; test: In vivo anticancer activity, survival model of P388D1 leukemia; details: DBA-2 mice, orally twice daily 250 mg/kg, Days 1-3 and 7-9
Experimental: DBA-2 mice were used as a host. One day following the leukemia transplantation, treatment with 105 was initiated. […] Survival analysis of treated animals (10 mice/group) was preformed in comparison with vehicle treated mice using Kaplan-Meier method and the significance was evaluated by the log-rank test. Body weight of experimental animals was evaluated in parallel in order to reflect toxicity and efficacy of therapy. Comparative analysis of body weight was performed using […].

[3] = test system: cervical carcinoma cells HELA; test: In vitro cytotoxic activity (Calcein AM, 72 hours), HELA; details: Homo sapiens, read-out: Cytotoxicity IC50 HeLa

For CCC(CO)Nc1nc(NCc2ccccc2N)c2ncn(C(C)C)c2n1 (stereo not shown) [Compound 105, 2-({6-[(2-aminobenzyl)amino]-9-isopropyl-9H-purin-2-yl}amino)butan-1-ol], the “inhibition of virus replication (in words)” value (HSV-1-deltaTK) was “remained sensitive”, the IC50 (breast carcinoma MCF7) was 3.4 µM and the IC50 [1] was 6.7 µM. For the same molecule, the “body weight of treated animals” value [2] was “reducing body weight”, the mean survival time [2] was 15.4 days and the “survival analysis (Kaplan-Meier, log-rank)” value ([2]; P=0.0409 versus vehicle) was “significantly better survival”. It also gave an IC50 [3] of 2.5 µM.
